From patent publication US8193184B2, “Substituted sulphonamides, process for their preparation, pharmaceutical composition comprising thereof and their use” (Unimed Pharma, SPOL, S.R.O., priority 2007, dated 2012)
“And” between values parts separate entries of the source, which are not always exact repeats. Equal values may be shown once. Where a name gives a salt, the structure may show the parent alone.

Experiments:
intraocular pressure = experiment: Intraocular pressure changes in vivo after application into the conjunctiva sac (Tono-Pen XL); parameters: species or system rabbit (Chinchilla); conditions: for Measured intraocular pressure values, RE, 0.5 h / Measured intraocular pressure values, RE, 0.5 h, Average / Measured intraocular pressure values, RE, 1 h, Average / Measured intraocular pressure values, RE, 1 h / Measured intraocular pressure values, RE, 4 h, Average / Measured intraocular pressure values, RE, 4 h / Measured intraocular pressure values, RE, 7 h, Average / Measured intraocular pressure values, RE, 7 h / Measured intraocular pressure values, RE, 25 h, Average / Measured intraocular pressure values, RE, 25 h / Measured intraocular pressure values, RE, 31 h, Average / Measured intraocular pressure values, RE, 31 h: treated right eye
Description: The basic pharmacologic profile of the compounds of the general formula (I), which was focused on the determination of the intraocular pressure changes, was evaluated in in vivo conditions. In addition to the main potential therapeutic effect, related side responses were also monitored. In the experiments the laboratory animals of chinchilla species were used, because the normotension eye of this animal species provides the best reactivity. Adult male Chinchilla (in the age of one to one and half year), of 2000-3500 g, examined by veterinarian, without disease symptoms, grown under the standard conditions was used as the animal model. The solutions of tested compounds of the general formula (I) were always freshly prepared. The distilled water was used as a control. Measurement apparatus Tono-Pen®XL from Medtronic XOMED was used for measurement of the intraocular pressure. The intraocular pressure values were expressed in mmHg. At the first day of the experiment the solutions of the tested compounds of the general formula (I) were applied twice a day, specifically at 8.00 a.m. and 2.00 p.m. At the second day of the experiment the application was still in the 30th hour (i.e. at the second day at 2.00 p.m.). The solution of each compound was always applied in an amount of 2 drops into the right conjunctiva sac. The left eye served as a control. Into the conjunctiva sac of this eye (left), the same number of drop (2 drops) of distilled water was applied. The distilled water served as placebo. […] Standard requirements were kept in all measurements. The measurements started in the morning at 7.00 a.m. The measurement was accomplished with Tono-Pen® XL apparatus by soft perpendicular touch of the probe to the cornea of the rabbit five times successively. The measurement was accomplished on the both cornea (right and left eyes) before administration of the sample. Thus the normal values of the intraocular pressure for both the right and left eyes were obtained. Then at 8.00 a.m. 2 drops of tested compound were applied in the right eye and 2 drops of the distilled water were applied in the left eye. Further measurements were carried out after half an hour (at 8.30 a.m.), after one hour (at 9.00 a.m.), after four hours (at 12.00), after seven hours (at 3.00 p.m.), after 25 hours (on the second day at 9.00 a.m.) and after 31 hours from the application in the right eye (on the second day at 3.00 p.m). […] Moreover, 2 drops of the tested compound in the right eye and 2 drops of distilled water in the left eye were applied again in the same group of the rabbits in the first day at 2.00 p.m. (i.e. 6 hours after application of the first dose of the compound) and in the second day of the experiment at 2.00 p.m. (i.e. in the 30th hour of the experiment). Thus the changes caused by the repeated administration of the compound can be monitored. For each compound and each concentration 10 independent assays were carried out.

CCN(CC)CCCNC(=O)c1ccc(S(N)(=O)=O)cc1 (as salt: ammonium) [II-4, 4-Sulfamoyl-N—(N,N-diethylaminopropyl)benzamide] gave a melting point of 122 to 123 °C.

With NS(=O)(=O)c1ccc(S(=O)(=O)NCCCN2CCOCC2)cc1 [Compound I-6, N-(Morpholinopropyl)benzene-1,4-bis(sulphonamide)] the “Measured intraocular pressure values, RE, 0.5 h” value (intraocular pressure; I-6 2% solution, 2 drops, 0.5 h after application, individual animals n 1-10, RE average before application (N) 12.9) was 7 mmHg (2×) and 8 mmHg and 9 mmHg (4×) and 11 mmHg and 12 mmHg and 15 mmHg, the “Measured intraocular pressure values, RE, 0.5 h, Average” value (intraocular pressure; I-6 2%, 0.5 h, average of 10, N RE average 12.9) was 9.6 mmHg and the “Measured intraocular pressure values, RE, 1 h, Average” value (intraocular pressure; I-6 2%, 1 h, average of 10, N RE average 12.9) was 10.3 mmHg. The “Measured intraocular pressure values, RE, 1 h” value (intraocular pressure; I-6 2%, 1 h, individual animals, N RE average 12.9) was 9 mmHg (3×) and 8 mmHg (2×) and 14 mmHg and 11 mmHg and 10 mmHg and 13 mmHg and 12 mmHg, the “Measured intraocular pressure values, RE, 4 h, Average” value (intraocular pressure; I-6 2%, 4 h, average of 10, N RE average 12.9) was 8.4 mmHg and the “Measured intraocular pressure values, RE, 4 h” value (intraocular pressure; I-6 2%, 4 h, individual animals, N RE average 12.9) was 6 mmHg and 8 mmHg (3×) and 9 mmHg and 12 mmHg (2×) and 7 mmHg (3×). The “Measured intraocular pressure values, RE, 7 h, Average” value (intraocular pressure; I-6 2%, 7 h (second dose at 6 h), average of 10, N RE average 12.9) was 7.3 mmHg, the “Measured intraocular pressure values, RE, 7 h” value (intraocular pressure; I-6 2%, 7 h (second dose at 6 h), individual animals, N RE average 12.9) was 8 mmHg (3×) and 10 mmHg (2×) and 5 mmHg (2×) and 6 mmHg (2×) and 7 mmHg and the “Measured intraocular pressure values, RE, 25 h, Average” value (intraocular pressure; I-6 2%, 25 h, average of 10, N RE average 12.9) was 10.7 mmHg. For the same molecule, the “Measured intraocular pressure values, RE, 25 h” value (intraocular pressure; I-6 2%, 25 h, individual animals, N RE average 12.9) was 9 mmHg (4×) and 12 mmHg (4×) and 15 mmHg and 8 mmHg, the “Measured intraocular pressure values, RE, 31 h, Average” value (intraocular pressure; I-6 2%, 31 h (dose at 30 h), average of 10, N RE average 12.9) was 10.4 mmHg and the “Measured intraocular pressure values, RE, 31 h” value (intraocular pressure; I-6 2%, 31 h (dose at 30 h), individual animals, N RE average 12.9) was 10 mmHg (2×) and 9 mmHg (3×) and 11 mmHg (2×) and 13 mmHg and 8 mmHg and 14 mmHg. The “Measured intraocular pressure values, RE, 0.5 h” value (intraocular pressure; I-6 2.5% solution, 2 drops, 0.5 h, individual animals n 1-10, N RE average 15.3) was 11 mmHg (2×) and 10 mmHg (3×) and 12 mmHg (2×) and 9 mmHg (2×) and 16 mmHg, the “Measured intraocular pressure values, RE, 0.5 h, Average” value (intraocular pressure; I-6 2.5%, 0.5 h, average of 10, N RE average 15.3) was 11 mmHg and the “Measured intraocular pressure values, RE, 1 h, Average” value (intraocular pressure; I-6 2.5%, 1 h, average of 10, N RE average 15.3) was 10.5 mmHg. The “Measured intraocular pressure values, RE, 1 h” value (intraocular pressure; I-6 2.5%, 1 h, individual animals, N RE average 15.3) was 10 mmHg (2×) and 9 mmHg (5×) and 13 mmHg and 16 mmHg and 11 mmHg, the “Measured intraocular pressure values, RE, 4 h, Average” value (intraocular pressure; I-6 2.5%, 4 h, average of 10, N RE average 15.3) was 10.1 mmHg and the “Measured intraocular pressure values, RE, 4 h” value (intraocular pressure; I-6 2.5%, 4 h, individual animals, N RE average 15.3) was 8 mmHg and 9 mmHg (3×) and 11 mmHg (3×) and 10 mmHg (2×) and 13 mmHg. For the same molecule, the “Measured intraocular pressure values, RE, 7 h, Average” value (intraocular pressure; I-6 2.5%, 7 h (second dose at 6 h), average of 10, N RE average 15.3) was 9.6 mmHg, the “Measured intraocular pressure values, RE, 7 h” value (intraocular pressure; I-6 2.5%, 7 h (second dose at 6 h), individual animals, N RE average 15.3) was 9 mmHg (4×) and 8 mmHg (2×) and 10 mmHg and 11 mmHg and 16 mmHg and 7 mmHg and the “Measured intraocular pressure values, RE, 25 h, Average” value (intraocular pressure; I-6 2.5%, 25 h, average of 10, N RE average 15.3) was 13 mmHg. For the same molecule, the “Measured intraocular pressure values, RE, 25 h” value (intraocular pressure; I-6 2.5%, 25 h, individual animals, N RE average 15.3) was 12 mmHg (3×) and 13 mmHg (3×) and 15 mmHg (2×) and 14 mmHg and 11 mmHg, the “Measured intraocular pressure values, RE, 31 h, Average” value (intraocular pressure; I-6 2.5%, 31 h (dose at 30 h), average of 10, N RE average 15.3) was 11.2 mmHg and the “Measured intraocular pressure values, RE, 31 h” value (intraocular pressure; I-6 2.5%, 31 h (dose at 30 h), individual animals, N RE average 15.3) was 9 mmHg (4×) and 10 mmHg (2×) and 16 mmHg and 13 mmHg and 15 mmHg and 12 mmHg.

For NS(=O)(=O)c1ccc(C(=O)NCCCN2CCOCC2)cc1 [II-6, 4-Sulfamoyl-N-(morpholinopropyl)benzamide], the “Measured intraocular pressure values, PO, 0.5 h” value (intraocular pressure; II-6 1% solution, 2 drops, treated right eye (PO), 0.5 h, individual animals n 1-10, N PO average 15.8) was 8 mmHg and 11 mmHg (2×) and 10 mmHg (3×) and 9 mmHg (2×) and 14 mmHg (2×), the “Measured intraocular pressure values, PO, 0.5 h, Average” value (intraocular pressure; II-6 1%, treated right eye (PO), 0.5 h, average of 10, N PO average 15.8) was 10.6 mmHg and the “Measured intraocular pressure values, PO, 1 h, Average” value (intraocular pressure; II-6 1%, treated right eye (PO), 1 h, average of 10, N PO average 15.8) was 10.4 mmHg. For the same molecule, the “Measured intraocular pressure values, PO, 1 h” value (intraocular pressure; II-6 1%, treated right eye (PO), 1 h, individual animals, N PO average 15.8) was 7 mmHg and 10 mmHg (3×) and 14 mmHg and 9 mmHg and 8 mmHg and 12 mmHg (3×), the “Measured intraocular pressure values, PO, 4 h, Average” value (intraocular pressure; II-6 1%, treated right eye (PO), 4 h, average of 10, N PO average 15.8) was 9.6 mmHg and the “Measured intraocular pressure values, PO, 4 h” value (intraocular pressure; II-6 1%, treated right eye (PO), 4 h, individual animals, N PO average 15.8) was 12 mmHg and 10 mmHg and 9 mmHg and 11 mmHg (2×) and 8 mmHg (3×) and 6 mmHg and 13 mmHg. For the same molecule, the “Measured intraocular pressure values, PO, 7 h, Average” value (intraocular pressure; II-6 1%, treated right eye (PO), 7 h (second dose at 6 h), average of 10, N PO average 15.8) was 9.1 mmHg, the “Measured intraocular pressure values, PO, 7 h” value (intraocular pressure; II-6 1%, treated right eye (PO), 7 h (second dose at 6 h), individual animals, N PO average 15.8) was 8 mmHg (2×) and 9 mmHg (3×) and 11 mmHg and 6 mmHg (2×) and 13 mmHg and 12 mmHg and the “Measured intraocular pressure values, PO, 25 h, Average” value (intraocular pressure; II-6 1%, treated right eye (PO), 25 h, average of 10, N PO average 15.8) was 13.7 mmHg. The “Measured intraocular pressure values, PO, 25 h” value (intraocular pressure; II-6 1%, treated right eye (PO), 25 h, individual animals, N PO average 15.8) was 13 mmHg (3×) and 16 mmHg (2×) and 18 mmHg and 12 mmHg (4×), the “Measured intraocular pressure values, PO, 31 h, Average” value (intraocular pressure; II-6 1%, treated right eye (PO), 31 h (dose at 30 h), average of 10, N PO average 15.8) was 11.1 mmHg and the “Measured intraocular pressure values, PO, 31 h” value (intraocular pressure; II-6 1%, treated right eye (PO), 31 h (dose at 30 h), individual animals, N PO average 15.8) was 10 mmHg (3×) and 12 mmHg (2×) and 9 mmHg (2×) and 11 mmHg and 14 mmHg (2×).
